Test results from ChEMBL document CHEMBL3822421, “Insights into the structure-activity relationship of the anticancer compound ZJ-101, a derivative of marine natural product superstolide A: A critical role played by the conjugated trienyl lactone moiety” (Bioorg Med Chem Lett, 2016).

Columns and labels:
Assay type in all cases: functional, cell-based
MDA-MB-231 = assay: Antiproliferative activity against human MDA-MB-231 cells after 48 to 72 hrs by Alamar blue assay
[1] = Antiproliferative activity against human SF295 cells after 48 to 72 hrs by Alamar blue assay; settings: SF-295
MCF7 = assay: Antiproliferative activity against human MCF7 cells after 48 to 72 hrs by Alamar blue assay
RKO = assay: Antiproliferative activity against human RKO cells after 48 to 72 hrs by Alamar blue assay

Row | Compound | IC50 (MDA-MB-231) [nM] | IC50 [1] [nM] | IC50 (MCF7) [nM] | IC50 (RKO) [nM]
1 | CC(=O)N[C@H](C)[C@@H](O)[C@@H](C)[C@@H]1OC(=O)/C=C/C=C(C)\C=C\[C@]2(C)CCC=C[C@@H]2/C=C(C)/C=C/[C@H]1C | 63 | 63.5 | 36.5 | 214
2 | CC(=O)N[C@H](C)[C@@H](O)[C@@H](C)[C@@H]1OC(=O)/C=C/C=C(C)/C=C/[C@]2(C)CCC=C[C@@H]2/C=C(C)/C=C/[C@H]1C | 384 | 611 | 376 | 1070
3 | CC(=O)N[C@H](C)[C@@H](O)[C@@H](C)[C@@H]1OC(=O)CC/C=C(C)\C=C\[C@]2(C)CCC=C[C@@H]2/C=C(C)/C=C/[C@H]1C | > 5000 | > 5000 | > 5000 | > 5000
